Our source for the Ki and pKi values is patent US9593110B2, “Neprilysin inhibitors” (Theravence Biopharma R&D IP, LLC, priority 2014, dated 2017).

The experiment has as its target human NEP (Homo sapiens (Human), UniProt P08473). The experiment is described as follows: In vitro enzyme inhibition assay at human NEP. The following applies: recombinant human NEP, fluorogenic peptide substrate, 37° C.; for Ki: pKi.

The structures appear in SMILES notation.

Sequence of human NEP (P08473 52-750): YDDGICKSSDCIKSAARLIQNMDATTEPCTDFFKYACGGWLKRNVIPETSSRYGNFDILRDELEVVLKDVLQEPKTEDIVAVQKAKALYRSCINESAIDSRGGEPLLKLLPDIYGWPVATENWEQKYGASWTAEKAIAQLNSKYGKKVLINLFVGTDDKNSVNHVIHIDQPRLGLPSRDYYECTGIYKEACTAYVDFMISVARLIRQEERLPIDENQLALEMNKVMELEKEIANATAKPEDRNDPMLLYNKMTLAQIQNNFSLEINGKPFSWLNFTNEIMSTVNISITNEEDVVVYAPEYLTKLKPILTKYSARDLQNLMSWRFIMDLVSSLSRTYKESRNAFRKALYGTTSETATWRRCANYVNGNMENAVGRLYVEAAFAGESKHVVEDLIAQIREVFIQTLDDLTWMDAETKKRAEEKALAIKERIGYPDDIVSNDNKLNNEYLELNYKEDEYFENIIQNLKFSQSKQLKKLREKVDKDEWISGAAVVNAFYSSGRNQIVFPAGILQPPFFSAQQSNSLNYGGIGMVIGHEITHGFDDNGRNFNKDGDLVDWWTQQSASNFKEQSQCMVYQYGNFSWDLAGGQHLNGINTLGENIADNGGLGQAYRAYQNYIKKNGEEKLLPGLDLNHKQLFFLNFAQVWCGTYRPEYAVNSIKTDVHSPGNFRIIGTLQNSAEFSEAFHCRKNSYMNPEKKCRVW

Usually Ki stands for a measure of affinity in units of concentration, obtained from inhibition or displacement. On to `CCOC[C@H](C[C@@H](Cc1ccc(-c2cccc(Cl)c2)cc1)NC(=O)c1cc(O)no1)C(=O)O` [Example 8, (2S,4S)-5-(3′-Chlorobiphenyl-4-yl)-2-ethoxymethyl-4-[(3-hydroxyisoxazole-5-carbonyl)amino]pentanoic Acid], for which the Ki was not above 1 nM.
For `CCOC[C@H](C[C@@H](Cc1ccc(-c2cccc(Cl)c2)cc1)NC(=O)c1c[nH]nn1)C(=O)O` [Example 9-1, (2S,4S)-5-(3′-Chlorobiphenyl-4-yl)-2-ethoxymethyl-4-[(1H-[1,2,3]triazole-4-carbonyl)amino]pentanoic acid], the pKi entry was “≧9.0”.
Turning to `CCOC[C@H](C[C@@H](Cc1ccc(-c2cccc(Cl)c2)cc1)NC(=O)c1cc(C(C)=O)[nH]n1)C(=O)O` [Example 9-2, (2S,4S)-4-[(5-Acetyl-1H-pyrazole-3-carbonyl)-amino]-5-(3′-chlorobiphenyl-4-yl)-2-ethoxymethylpentanoic acid], the pKi result is listed as “≧9.0”.
Turning to `CCOC[C@H](C[C@@H](Cc1ccc(-c2cccc(Cl)c2)cc1)NC(=O)c1n[nH]c(C(F)(F)F)n1)C(=O)O` [Example 9-3, (2S,4S)-5-(3′-Chlorobiphenyl-4-yl)-2-ethoxymethyl-4-[(5-trifluoromethyl-1H-[1,2,4]triazole-3-carbonyl)amino]pentanoic acid], the pKi entry is reported as “≧9.0”.
As to `CCOC[C@H](C[C@@H](Cc1ccc(-c2cccc(Cl)c2)cc1)NC(=O)c1cc(OC)no1)C(=O)O` [Example 9-4, (2S,4S)-5-(3′-Chlorobiphenyl-4-yl)-2-ethoxymethyl-4-[(3-methoxy-isoxazole-5-carbonyl)amino]pentanoic acid], the pKi result is recorded as “≧9.0”.
Turning to `CCOC[C@H](C[C@@H](Cc1ccc(-c2cccc(Cl)c2)cc1)NC(=O)c1noc(=O)[nH]1)C(=O)O` [Example 9-5, (2S,4S)-5-(3′-Chlorobiphenyl-4-yl)-2-ethoxymethyl-4-[(5-oxo-4,5-dihydro-[1,2,4]oxadiazole-3-carbonyl)amino]pentanoic acid], the pKi result is reported as “≧9.0”.
As to `CCOC[C@H](C[C@@H](Cc1ccc(-c2ccccc2)cc1)NC(=O)c1c[nH]nn1)C(=O)O` [Example 10, (2S,4S)-5-Biphenyl-4-yl-2-ethoxymethyl-4-[(1H-[1,2,3]triazole-4-carbonyl)amino]pentanoic Acid], the pKi result is given as “≧9.0”.
On to `O=C(N[C@H](Cc1ccc(-c2ccccc2)cc1)C[C@@H](COCCO)C(=O)O)c1c[nH]nn1` [Example 11, (2S,4S)-5-Biphenyl-4-yl-2-(2-hydroxyethoxymethyl)-4-[(1H-[1,2,3]triazole-4-carbonyl)amino]pentanoic Acid], for which the inhibition constant Ki was in the range of 1.26 to 3.16 nM.
For `O=C(N[C@H](Cc1ccc(-c2ccccc2)cc1)C[C@@H](COCCCO)C(=O)O)c1c[nH]nn1` [Example 12, (2S,4S)-5-Biphenyl-4-yl-2-(3-hydroxypropoxymethyl)-4-[(1H-[1,2,3]triazole-4-carbonyl)amino]pentanoic Acid], the Ki fell in the range of 1.26 to 3.16 nM.
For `N[C@H](C[C@@H](Cc1ccc(-c2cc(Cl)ccc2F)cc1)NC(=O)c1c[nH]nn1)C(=O)O` [Example 13, (2R,4R)-2-Amino-5-(5′-chloro-2′-fluorobiphenyl-4-yl)-4-[(1H-[1,2,3]triazole-4-carbonyl)amino]pentanoic Acid], the inhibition constant Ki is not above 1 nM.
With `CC(C)c1coc(C(=O)N[C@H](Cc2ccc(-c3cc(Cl)ccc3F)cc2)C[C@@H](N)C(=O)O)n1` [Example 15, (2R,4R)-2-Amino-5-(5′-chloro-2′-fluorobiphenyl-4-yl)-4-[(4-isopropyloxazole-2-carbonyl)amino]pentanoic Acid], the inhibition constant (Ki) is not above 1 nM.
Turning to `CCc1cc(C(=O)N[C@H](Cc2ccc(-c3cc(Cl)ccc3F)cc2)C[C@@H](N)C(=O)O)on1` [Example 16-1, (2R,4R)-2-Amino-5-(5′-chloro-2′-fluorobiphenyl-4-yl)-4-[(3-ethylisoxazole-5-carbonyl)-amino]pentanoic acid], the Ki was in the range of 1.26 to 3.16 nM.
